Results published in patent US8557800B2, “Sphingosine kinase inhibitors” (Apogee Biotechnology Corporation, priority 2005, dated 2013).

Legend:
[1] = test system: mice, multiple cycles of DSS-induced inflammation; assay: Chronic DSS-colitis model (35-day); format: in vivo, mouse
Procedure: FIG. 13. Effects of Compound 62 on the DAI in the chronic DSS-colitis model. Mice received 2 cycles (7 days per cycle) of DSS (1.5% cycle 1 and 1% cycle 2), 2 cycles of normal drinking water and were randomized by DAI on Day 28 into groups of 8 mice. The mice were then treated as follows: No DSS (▪)—normal drinking water and orally dosed with PEG400 every day for 7 days (water control); DSS alone (▴)—drinking water containing 1.5% DSS and orally dosed with PEG daily for 7 days; DSS+Compound 62 (▾)—drinking water containing 1.5% DSS and orally dosed with Compound 62 (50 mg/kg) every day for 7 days; DSS+Dipentum (♦)—drinking water containing 1.5% DSS and orally dosed with Dipentum (50 mg/kg). *p<0.001 versus No DSS group.
A 35-day model of IBD was used to evaluate the effectiveness of the SK inhibitors in mice that experience multiple cycles of DSS-induced inflammation. This chronic model is similar to the acute model, except that the DSS concentration in the drinking water is lower and animals receive periodic exposure to DSS (DSS on days 1-7, water on Days 8-13, DSS on day 14-21, water on Days 22-27 and then DSS until the completion of the study on Day 35). In these experiments, treatment of the mice with an SK inhibitor or Dipentum began on Day 28 and continued daily until the completion of the study. The DAI index was monitored every other day until Day 28 and then daily until Day 35. Animals were sacrificed on Day 35, and changes in the colon length and cytokine profiles were measured.

[2] = test system: NFκB; assay: TNFα-induced NFκB reporter cell line; format: cell-based; details: fibroblasts, TNFα 6 hours
Procedure: FIG. 5. Inhibition of TNFα-induced activation of NFκB by Compound 62. Fibroblasts transfected with a TNFα-responsive promoter linked to luciferase were treated with the indicated concentrations of Compound 62 and then treated with TNFα for 6 hours. The amount of luciferase expressed by the cells was then measured by luminescence. Values represent the mean±sd luciferase activity in triplicate samples in a typical experiment.
The excellent aqueous solubility of Compound 62 allowed it to be evaluated in an NFκB reporter cell line (FIG. 5). Fibroblasts transfected with an NFκB response element linked to luciferase produce high levels of luciferase upon exposure to TNFα.

[3] = test system: recombinant human SK; assay: Inhibition of recombinant human SK, LC/MS/MS assay; format: biochemical; details: 6 μg/ml compound
Summary of the method: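 Enzyme incubated with unlabeled sphingosine and ATP (1 mM, as in the radiometric format) for 30 min, then stopped and extracted with acetonitrile. S1P quantified by C8 reverse-phase HPLC–MS/MS against C17 sphingosine and C17 S1P internal standards using calibration curves.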

[4] = test system: MDA-MB-231 (breast, ER−); assay: Human tumor cell line panel, sulforhodamine B; format: cell-based; details: 48 hours, mean ± sd
[5] = test system: female DBA/1 mice, collagen-induced arthritis; assay: Collagen-Induced Arthritis (CIA) model; format: in vivo, mouse; details: Day 12
Procedure: The anti-arthritis activities of the SK inhibitor Compound 62 were assessed in the Collagen-Induced Arthritis (CIA) model. Female DBA/1 mice were injected subcutaneously in the tail with chicken immunization-grade type II collagen (Chondrex) emulsified in complete Freund's adjuvant (Sigma) at 2 mg/mL. Three weeks later, the mice received a collagen booster in incomplete Freund's adjuvant and were monitored daily thereafter for arthritic symptoms. […] The severity of disease in each animal was quantified by measurement of the hind paw volume with digital calipers. […] Differences among treatment groups were tested using ANOVA.

[6] = test system: C57BL/6 mice, DSS model of IBD; assay: Acute DSS-colitis model; format: in vivo, mouse; details: 2% DSS, 50 mg/kg oral daily
Procedure: We have conducted experiments with SK inhibitors using the dextran sulfate sodium (DSS) model of IBD. In these experiments, male C57BL/6 mice were provided with standard rodent diet and water ad libitum. After their acclimation, the animals were randomly divided into groups of 5 or 6 for DSS (40,000 MW from ICN Biomedicals, Inc., Aurora, Ohio)—and drug-treatment. The SK inhibitors were dissolved in PEG400, and given once daily by oral gavage in a volume of 0.1 mL per dose. Dipentum, an FDA-approved anti-colitis drug whose active ingredient, olsalazine, is converted to 5-aminosalicylic acid in vivo, was used as a positive control. The mice were given normal drinking water or 2% DSS and treated orally with an SK inhibitor or Dipentum at a dose of 50 mk/kg daily. The body weight of each animal was measured each day, and the Disease Activity Index (DAI) was scored for each animal on Days 4-6. On Day 6, the animals were sacrificed by cervical dislocation and the entire colon was removed and measured to the nearest 0.1 cm. Portions of the colons were then fixed, sectioned and their histologies were assessed on a blinded basis to determine their Histology Score. Other portions of the colons were used for biochemical analyses of inflammation markers.

[7] = test system: mouse JC mammary adenocarcimona cell line growing subcutaneously in Balb/c mice
Procedure: The antitumor activity of the representative SK inhibitors were evaluated using a syngeneic tumor model that uses the mouse JC mammary adenocarcimona cell line growing subcutaneously in immunocompetent Balb/c mice (Lee et al., 2003, Oncol Res 14: 49).
In FIG. 1, Balb/c mice, 6-8 weeks old, were injected subcutaneously with 10^6 JC cells suspended in phosphate-buffered saline. The SK inhibitors Compounds 62 and 57 were dissolved in PEG400 and administered to mice every-other day at a dose of 100 mg/kg. Body weights and tumor volumes were monitored daily. In FIG. 1, tumor growth is expressed as the tumor volume relative to day 1 for each animal.

[8] = 100 mg/kg orally each day 6 days per week

In the case of `O=C(NCc1ccncc1)C12CC3CC(C1)CC(c1ccc(Cl)cc1)(C3)C2` [Compound 62, 3-(4-Chloro-phenyl)-adamantane-1-carboxylic acid (pyridin-4-ylmethyl)-amide], the colon length ([1]; 50 mg/kg oral daily Day 28-35, DSS alone 4.9±0.2, water 7.8±0.3) is reported as 6.2±0.2 cm, the “increase in DAI” value ([1]; 50 mg/kg oral daily from Day 28 to Day 35, third DSS exposure) is reported as “significantly suppressed” and the “colon SK expression (immunohistochemistry)” value ([1]; DSS mice, 50 mg/kg oral daily) is reported as “clearly reduced”. The “serum level of IL-6” value ([1]; at sacrifice, Day 35) was “reduced”, the “colon S1P levels” value ([1]; oral 50 mg/kg daily, 7 days prior to sacrifice) was “significant reductions” and the “colon levels of pro-inflammatory cytokines TNFα, IL-1β, IFN-γ and IL-6” value ([1]; treated during the final DSS cycle) was “reduced levels”. The “activation of NFκB by TNFα (luciferase)” value [2] was “dose-dependently suppressed”, the “Recombinant SK (% inhibition)” value [3] was 13% and the IC50 [4] was 29.1 ± 11.1 µM. The “reduction in clinical score vs vehicle” value [5, 8] was 67%, the “reduction in the increase in hind paw thickness vs vehicle” value [5, 8] was 90% and the “histologic damage of tibiotarsal joints” value ([5]; 100 mg/kg orally) was “significantly reduced”. For the same compound, the “increase in colon myeloperoxidase (MPO) activity” value [6] was “markedly attenuated”, the colon length ([6]; Day 6) was “intermediate length” and the “histological examination of colon sections” value ([6]; Day 6) was “no or mild crypt damage, no or low levels of inflammatory cell infiltration and no edema in the submucosa”. For the same compound, the “Disease Activity Index (intensity of IBD manifestations)” value ([6]; Days 4-6) was “reduced”, the “colonic S1P levels vs DSS-alone” value ([6]; LC-MS/MS) was “markedly lower” and the “inhibition of tumor growth relative to controls” value ([7]; 100 mg/kg oral every-other day in PEG400) was 69%. For the same compound, the In vivo activity ([7]; JC tumor model, intraperitoneal (ip) or oral (po) administration) was “active - ip and po” and the “toxicity to the mice in dose-response study” value ([7]; mouse, in vivo) was “No toxicity”.
